experiment: recombinant barcode read abundance after kanamycin selection (control-corrected) (log10(CPM+1)); higher = more efficient recombination; sequences stand for … in AGTGCAGAGAAAATCGGCCAGTTTTCTCTGCCTGCAGTCCGCATGCCGT…AGATTTATGCAGCGGACTGCCTTTCTCCCAAAGTGATAAACCGGACAGTATCATGGACCGGTTTTCCCGGTAATCCGTATTTGCAAGGTTGGTTTCACT; site = the 11-nt target
Outline: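 Pooled oligos, each joining a target to an IS621 bridge RNA target-binding loop, were cloned and co-electroporated with a donor plasmid into E. coli. Selective plates carried chloramphenicol/ampicillin/kanamycin and 0.1 mM IPTG, while chloramphenicol/ampicillin LB agar served as control, with two replicates of each. Recombination efficiency rests on averaged, control-corrected counts per million of barcodes at recombinant junctions, shown as log10(CPM+1).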

Sequence	recombinant barcode read abundance (log10)
TTATCTCCTTGGGTTCTAACCTGTTGCTT (site TCGTCTCCTAA)	0.0381
CACAGATCTTGGGTTCTAACCTGTTGCTT (site CAAAGATCTAA)	0.14
TGACTAGCTTGGGTTCTAACCTGTTGCCT (site TGCCTAGCTAG)	0.03
AAGGAACCTTGGGTTCTAACCTGTTGCCT (site CAGGAACCTAG)	1.23
AGGTTCCCTTGGGTTCTAACCTGTTGCTT (site AGGTTCCCTTA)	0.183
ACATGGACTTGGGTTCTAACCTGTTGCAT (site ACATGAACTAT)	0.753
CAAACTCCTTGGGTTCTAACCTGTTGCTT (site CAAACTCCTAC)	0.0428
GGCAGTCCTTGGGTTCTAACCTGTTGCCT (site GGCAGTCCTAA)	0.111
ACGGGCTCTTGGGTTCTAACCTGTTGCTT (site ACGGGCTCTAA)	2.69
CCTACAACTTGGGTTCTAACCTGTTGCCT (site CCTACACCTAG)	0.0313
CTTACCGCTTGGGTTCTAACCTGTTGCCT (site CTTACCGCTAG)	1.19
AAAGCTACTTGGGTTCTAACCTGTTGCTA (site AAAGCTACTTA)	0.86
ACCAAGTCTTGGGTTCTAACCTGTTGCGC (site ACCAAGTCTGC)	1.74
CATTGGACTTGGGTTCTAACCTGTTGCCT (site CACTGGACTAG)	0.0737
CTCTAGTCTTGGGTTCTAACCTGTTGCCT (site CTCTAGTCTAG)	0.154
TACCCGACTTGGGTTCTAACCTGTTGCCT (site TACCAGACTAG)	0.0911
TAGCCCTCTTGGGTTCTAACCTGTTGCAA (site ACAGTACCTCA)	0.202
GTCTGAGCTTGGGTTCTAACCTGTTGCCT (site GTCTAAGCTAG)	0.241
CTCCCTTCTTGGGTTCTAACCTGTTGCTT (site CTTCCTTCTAG)	0.104

Sequence	recombinant barcode read abundance (log10)
CTGTCTCCTTGGGTTCTAACCTGTTGCGT (site CTGTCTCCTAC)	0.833
GACGGACCTTGGGTTCTAACCTGTTGCTT (site GACGGACCTAA)	0.832
GAGAGATCTTGGGTTCTAACCTGTTGCCT (site GAGATATCTAG)	0.117
CAGAATCCTTGGGTTCTAACCTGTTGCGG (site CAGAATCCTCC)	1.73
TAGCCGGCTTGGGTTCTAACCTGTTGCAG (site TAGCCGGCTCT)	1.06
TGTAGTCCTTGGGTTCTAACCTGTTGCCT (site TGTAGTCCTAG)	0.26
CCGTAATCTTGGGTTCTAACCTGTTGCCT (site CCGTAACCTAG)	0.47
ACATTGCCTTGGGTTCTAACCTGTTGCCT (site ACGTTGCCTAG)	0.732
GCTGAGTCTTGGGTTCTAACCTGTTGCTA (site GCTGAGTCTTA)	2.08
TGTATCGCTTGGGTTCTAACCTGTTGCCT (site TGTATCGCTAG)	0.405
ACTGATACTTGGGTTCTAACCTGTTGCCT (site ACTGATCCTAG)	0.0466
CGAGGGGCTTGGGTTCTAACCTGTTGCCT (site CGAGGGGCTAG)	0.369
AGTCTAGCTTGGGTTCTAACCTGTTGCCT (site AGTCTAGCTCG)	0.692
GTTTGCCCTTGGGTTCTAACCTGTTGCTT (site GTTTGGCCTAA)	0.0442
AATAGGACTTGGGTTCTAACCTGTTGCTA (site AATAAGACTTG)	0.0927
CAGTCTACTTGGGTTCTAACCTGTTGCCT (site CCGTCTACTAG)	0.26
GGGATACCTTGGGTTCTAACCTGTTGCTA (site TATGGTACTAC)	0.292
ACACCGTCTTGGGTTCTAACCTGTTGCCT (site ACACCGTCTAG)	2.12
CGTACGACTTGGGTTCTAACCTGTTGCAT (site CGTCCGACTAT)	0.451

experiment: recombinant barcode read abundance after kanamycin selection (control-corrected) (log10(CPM+1)); higher = more efficient recombination; sequences stand for … in AGTGCAGAGAAAATCGGCCAGTTTTCTCTGCCTGCAGTCCGCATGCCGT…ATTTATGCAGCGGACTGCCTTTCTCCCAAAGTGATAAACCGGACAGTATCATGGACCGGTTTTCCCGGTAATCCGTATTTGCAAGGTTGGTTTCACT; site = the 11-nt target
Experimental: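 Same pooled E. coli target screen (IS621 bridge recombinase, kanamycin selection, control-corrected CPM, mean of 2 biological replicates). Here the two core-binding nucleotides of the LTG and RTG of the bridge RNA target-binding loop are mutated. Target and donor CT cores are held constant, and the other 9 guide positions match the target. The target is read from the library oligo sequence. Molecule = full bridge RNA written as DNA: nt 1-80 from the library oligo, rest WT scaffold.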

Sequence	recombinant barcode read abundance (log10)
AAACATGAATGGGTTCTAACCTGTTGCCTTT [AAACATGCTAG_LTGcore_AA_RTGcore_AA] (site AAACATGCTAG) (LTG core: AA, RTG core: AA)	0.133
GTCGCCCCTTGGGTTCTAACCTGTTGCTACG [GTCGCCCCTTA_LTGcore_CT_RTGcore_CG] (site GTCGCCCCTTA) (LTG core: CT, RTG core: CG)	0.323
TCTACCCCCTGGGTTCTAACCTGTTGCTGAG [TCTACCCCTCA_LTGcore_CC_RTGcore_CT] (site TCTACCCCTCA) (LTG core: CC, RTG core: CT)	0.0931
TCGCGACCGTGGGTTCTAACCTGTTGCCGCG [TCGCGACCTCG_LTGcore_CG_RTGcore_CG] (site TCGCGACCTCG) (LTG core: CG, RTG core: CG)	0.0313
ATGCTTTGGTGGGTTCTAACCTGTTGCCTCC [ATGCTTTCTAG_LTGcore_GG_RTGcore_GG] (site ATGCTTTCTAG) (LTG core: GG, RTG core: GG)	0.235
AAACATGCATGGGTTCTAACCTGTTGCCTTG [AAACATGCTAG_LTGcore_CA_RTGcore_CA] (site AAACATGCTAG) (LTG core: CA, RTG core: CA)	0.0197
GAGCCCATTTGGGTTCTAACCTGTTGCCTAA [GAGCCCACTAG_LTGcore_TT_RTGcore_TT] (site GAGCCCACTAG) (LTG core: TT, RTG core: TT)	0.178
GGACACCCATGGGTTCTAACCTGTTGCCTAG [GGACACCCTAG_LTGcore_CA_RTGcore_CT] (site GGACACCCTAG) (LTG core: CA, RTG core: CT)	0.765
AGGCGGGGATGGGTTCTAACCTGTTGCGGTC [AGGCGGGCTCC_LTGcore_GA_RTGcore_GA] (site AGGCGGGCTCC) (LTG core: GA, RTG core: GA)	0.133
TTATAAAAGTGGGTTCTAACCTGTTGCCTCT [TTATAAACTAG_LTGcore_AG_RTGcore_AG] (site TTATAAACTAG) (LTG core: AG, RTG core: AG)	0.0267
GGGCGTGCTTGGGTTCTAACCTGTTGCCTCG [GGGCGTGCTAG_LTGcore_CT_RTGcore_CG] (site GGGCGTGCTAG) (LTG core: CT, RTG core: CG)	0.166
GGTGCCCCTTGGGTTCTAACCTGTTGCCGCG [GGTGCCCCTCG_LTGcore_CT_RTGcore_CG] (site GGTGCCCCTCG) (LTG core: CT, RTG core: CG)	0.222
AGGCGGTGCTGGGTTCTAACCTGTTGCTTAG [AGGCGGTCTAA_LTGcore_GC_RTGcore_CT] (site AGGCGGTCTAA) (LTG core: GC, RTG core: CT)	0.419
GAGTCCACGTGGGTTCTAACCTGTTGCGTCG [GAGTCCACTAC_LTGcore_CG_RTGcore_CG] (site GAGTCCACTAC) (LTG core: CG, RTG core: CG)	0.405
GCGGGACCTTGGGTTCTAACCTGTTGCCTAC [GCGGGACCTAG_LTGcore_CT_RTGcore_GT] (site GCGGGACCTAG) (LTG core: CT, RTG core: GT)	0.997
ATGCTTTCTTGGGTTCTAACCTGTTGCCTGA [ATGCTTTCTAG_LTGcore_CT_RTGcore_TC] (site ATGCTTTCTAG) (LTG core: CT, RTG core: TC)	0.0714
CGGTCCCTGTGGGTTCTAACCTGTTGCCACA [CGGTCCCCTTG_LTGcore_TG_RTGcore_TG] (site CGGTCCCCTTG) (LTG core: TG, RTG core: TG)	0.175
GAGGCCTCTTGGGTTCTAACCTGTTGCCACG [GAGGCCTCTTG_LTGcore_CT_RTGcore_CG] (site GAGGCCTCTTG) (LTG core: CT, RTG core: CG)	0.128
AGGCCTCCTTGGGTTCTAACCTGTTGCCTAT [AGGCCTCCTAG_LTGcore_CT_RTGcore_AT] (site AGGCCTCCTAG) (LTG core: CT, RTG core: AT)	0.576
TGTATTCCTTGGGTTCTAACCTGTTGCCTTA [TGTATTCCTAG_LTGcore_CT_RTGcore_TA] (site TGTATTCCTAG) (LTG core: CT, RTG core: TA)	0.0748
GCGCGACTTTGGGTTCTAACCTGTTGCTTAA [GCGCGACCTAA_LTGcore_TT_RTGcore_TT] (site GCGCGACCTAA) (LTG core: TT, RTG core: TT)	0.108
GGGAGCCCGTGGGTTCTAACCTGTTGCTGAG [GGGAGCCCTCA_LTGcore_CG_RTGcore_CT] (site GGGAGCCCTCA) (LTG core: CG, RTG core: CT)	0.27
